In patent US20250346599A1, “TRICYCLIC PHTHALAZINONE PARP INHIBITORS AND METHODS OF USE” (Valo Health, Inc., priority 2022, published 2025):

Legend:
tumors = details: literature statement; cited from earlier work
[1] = in vivo unbound brain to plasma ratio (Kpuu) at steady state; details: rat, brain and plasma (unbound), continuous intravenous infusion over 24 hours, Sprague Dawley rats, free drug in brain vs plasma
Description: Compounds of the present technology are predicted to show BBB passage according to internal proprietary predictive models. These predictive models were further verified by in vivo experiments. In particular, in vivo unbound brain to plasma ratio (Kpuu) was measured at steady state by comparison of free drug concentrations (protein binding corrected) in brain and plasma after continuous intravenous infusion in Sprague Dawley rats over 24 hours, where a Kpuu of >0.3 represents good brain exposure of the compound.

PARP1 enzyme = PARP1 enzyme (Homo sapiens (Human), UniProt P09874); assay: PARP Mass Spectroscopy Assay (PARP1 enzymatic assay, nicotinamide detection); format: biochemical; details: 5 nM PARP1, 5 uM β-NAD, 60 min at RT, NAM by mass spectrometry
Sequence of PARP1 enzyme (P09874 whole entry): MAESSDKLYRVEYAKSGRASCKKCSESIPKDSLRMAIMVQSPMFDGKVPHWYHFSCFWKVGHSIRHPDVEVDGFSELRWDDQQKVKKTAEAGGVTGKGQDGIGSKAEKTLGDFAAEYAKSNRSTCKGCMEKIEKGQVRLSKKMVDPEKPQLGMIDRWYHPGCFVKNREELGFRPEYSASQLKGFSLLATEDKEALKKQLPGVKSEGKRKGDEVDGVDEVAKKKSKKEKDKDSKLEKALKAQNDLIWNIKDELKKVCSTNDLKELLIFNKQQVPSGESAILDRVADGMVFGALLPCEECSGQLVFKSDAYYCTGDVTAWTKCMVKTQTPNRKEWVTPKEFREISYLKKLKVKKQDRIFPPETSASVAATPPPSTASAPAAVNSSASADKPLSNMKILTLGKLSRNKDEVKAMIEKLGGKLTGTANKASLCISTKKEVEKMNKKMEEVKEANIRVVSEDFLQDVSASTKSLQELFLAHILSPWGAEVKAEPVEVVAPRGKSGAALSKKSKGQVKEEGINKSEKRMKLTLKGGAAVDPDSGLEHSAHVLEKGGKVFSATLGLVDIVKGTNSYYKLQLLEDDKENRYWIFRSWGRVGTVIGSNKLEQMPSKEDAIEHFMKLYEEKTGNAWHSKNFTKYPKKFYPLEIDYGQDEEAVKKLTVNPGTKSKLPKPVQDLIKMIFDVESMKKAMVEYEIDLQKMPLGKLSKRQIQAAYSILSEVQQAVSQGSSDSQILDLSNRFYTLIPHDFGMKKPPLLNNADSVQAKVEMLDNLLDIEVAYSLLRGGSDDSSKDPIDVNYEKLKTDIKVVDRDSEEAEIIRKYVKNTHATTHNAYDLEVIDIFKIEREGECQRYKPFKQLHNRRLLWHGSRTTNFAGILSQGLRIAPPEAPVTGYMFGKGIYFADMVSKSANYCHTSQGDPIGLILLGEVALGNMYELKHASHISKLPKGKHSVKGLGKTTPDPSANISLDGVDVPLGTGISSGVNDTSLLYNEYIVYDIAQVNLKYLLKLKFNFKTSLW
Summary of the method: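 Compounds were pre-incubated 30 min at RT with 5 nM PARP1 and core histones, then reacted 60 min at RT with 5 uM β-NAD and activated DNA in Tris pH 8.0 buffer with MgCl2, NaCl, Triton X-100 and DTT. The reaction was quenched with 3ABA, and nicotinamide was measured by mass spectrometry. IC50 came from a four-parameter fit of 10-point curves.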

[2] = target: human MDR1 (P-glycoprotein; P-gp) (Homo sapiens (Human), UniProt P08183); assay: bi-directional MDCK-MDR1 permeability assay; format: in vitro ADME; details: MDCK-MDR1
Sequence of human MDR1 (P-glycoprotein; P-gp) (P08183 whole entry): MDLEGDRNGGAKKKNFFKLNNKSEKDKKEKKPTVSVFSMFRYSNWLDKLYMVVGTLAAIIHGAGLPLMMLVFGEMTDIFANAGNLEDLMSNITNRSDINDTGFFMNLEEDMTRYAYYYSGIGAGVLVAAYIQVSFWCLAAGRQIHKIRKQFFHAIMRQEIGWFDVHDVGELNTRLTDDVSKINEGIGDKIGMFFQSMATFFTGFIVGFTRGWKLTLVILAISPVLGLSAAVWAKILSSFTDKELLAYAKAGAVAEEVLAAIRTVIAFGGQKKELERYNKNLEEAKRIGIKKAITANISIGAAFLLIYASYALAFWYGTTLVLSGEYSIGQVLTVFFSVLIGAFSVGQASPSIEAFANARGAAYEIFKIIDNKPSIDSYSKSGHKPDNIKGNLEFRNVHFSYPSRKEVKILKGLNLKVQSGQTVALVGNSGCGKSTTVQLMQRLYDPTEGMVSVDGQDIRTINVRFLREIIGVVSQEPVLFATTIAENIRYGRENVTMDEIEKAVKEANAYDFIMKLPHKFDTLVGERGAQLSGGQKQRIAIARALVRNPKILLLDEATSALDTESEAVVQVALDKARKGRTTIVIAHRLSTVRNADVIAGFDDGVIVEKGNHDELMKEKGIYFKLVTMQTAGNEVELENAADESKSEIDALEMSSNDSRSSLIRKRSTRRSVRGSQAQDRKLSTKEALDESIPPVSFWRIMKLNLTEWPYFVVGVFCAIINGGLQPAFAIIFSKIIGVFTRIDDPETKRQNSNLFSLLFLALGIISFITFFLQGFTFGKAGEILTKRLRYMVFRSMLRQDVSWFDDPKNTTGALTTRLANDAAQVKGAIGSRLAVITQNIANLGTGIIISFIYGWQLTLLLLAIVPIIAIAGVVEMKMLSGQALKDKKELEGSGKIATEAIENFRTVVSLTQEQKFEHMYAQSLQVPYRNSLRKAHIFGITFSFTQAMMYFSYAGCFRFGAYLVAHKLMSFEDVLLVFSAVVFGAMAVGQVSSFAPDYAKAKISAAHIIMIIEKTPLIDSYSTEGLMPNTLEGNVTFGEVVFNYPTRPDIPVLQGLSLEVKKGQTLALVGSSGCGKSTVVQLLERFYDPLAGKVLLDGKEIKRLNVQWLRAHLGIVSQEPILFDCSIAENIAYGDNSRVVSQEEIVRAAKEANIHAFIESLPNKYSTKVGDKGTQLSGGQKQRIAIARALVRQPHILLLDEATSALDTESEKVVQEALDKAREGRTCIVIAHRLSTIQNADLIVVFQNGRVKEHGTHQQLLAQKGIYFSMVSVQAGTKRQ
Description: The bi-directional assay containing a Mandin Darby canine kidney (MDCK) cell line transfected with human MDR1 gene (P-glycoprotein; P-gp) designed to overexpress the MDR1 efflux transporter, a major efflux transporter at the blood brain barrier (BBB), uses an established method that measures the rate of flux of a compound across polarized cell monolayers. As well appreciated in the art, the data generated from the MDCK-MDR1 permeability assay may be used to predict in vivo absorption of drugs. The bi-directional MDCK-MDR1 permeability assay can identify and quantify levels of active efflux. Screening compounds in both the apical to basolateral direction (A→B) and basolateral to apical direction (B→A) across the cell monolayer provides a ratio of B→A/A→B (efflux ratio; “ER”). Unlike the Caco-2 assay, the MDCK-MDR1 assay is not subject to potential efflux interference by breast cancer resistance protein (BCRP). […] The data may further be used to predict blood brain barrier (BBB) permeability via calculation from the data of log(permeability-surface area product) (“log PS”), well-understood to be predictive of the in vivo log([brain concentration]/[plasma concentration]).

Row | SMILES | efficacy in tumors (tumors) | Kp uu at 24 h [1] | IC50 (PARP1 enzyme) | Papp A→B ([2]; dog, apical to basolateral direction) | efflux ratio ([2]; human, efflux ratio B→A/A→B, read-out: MDCK-MDR1 ER)
1 | C[C@]1(c2nc3c(C(N)=O)cccc3[nH]2)CCCN1 [veliparib] | not efficacious in most tumors |  |  |  | 
2 | O=c1[nH]nc2c3c(cc(F)cc13)NC[C@@H]2c1ccc(F)cc1F [Compound 0114B, (S)-9-(2,4-difluorophenyl)-5-fluoro-2,7,8,9-tetrahydro-3H-pyrido[4,3,2-de]phthalazin-3-one] |  | 0.921 | 41 nM | 18.6 ×10⁻⁶ cm/s | 0.55
